≈ marks a conversion by molar mass, not a printed value. Where two headings read alike, the source gives them in different places.
How the values were obtained:
Assay type in all cases: cell-based
Staph. aureus = test: Agar Dilution MIC (Table I); settings: Staphylococcus aureus
Staph. epi = test: Agar Dilution MIC (Table I); settings: read-out: Agar Dilution MIC
Strep. A = test: Agar Dilution MIC (Table I); settings: read-out: Agar Dilution MIC
Strep. PN = test: Agar Dilution MIC (Table I); settings: strain PARK
Strep. D = test: Agar Dilution MIC (Table I); settings: for MIC: read-out: Agar Dilution MIC
Source text: A typical and preferred compound provided by this invention is 7-(3-benzothienyl)glycylamido-3-methyl-3-cephem-4-carboxylic acid, the compound illustrated in Example 9. The antibacterial activity of this compound has been determined in standard in vitro agar dilution assays against a variety of gram positive and gram negative microorganism. The following Tables present typical minimum inhibitory concentrations (MIC's) in μg/ml for several compounds of the invention when evaluated against the indicated microorganisms. MIC's for several known compounds are also presented for comparison.
Agar Dilution MIC (μg/ml)

H. influ. = test: Agar Dilution MIC (Table I); settings: read-out: Agar Dilution MIC
E. coli = test: Agar Dilution MIC (Table I); settings: Escherichia coli
Klebsiella = test: Agar Dilution MIC (Table I); settings: for MIC: Klebsiella, read-out: Agar Dilution MIC
Bacteroides fragilis = test: Expanded anaerobic Spectrum MIC (Table IV)
Haemophilus influenzae = test: Expanded H. influenzae Spectrum MIC (Table IV)
[1] = read-out: Agar Dilution MIC, strain S13E
[2] = strain V41, read-out: Agar Dilution MIC
[3] = strain X1.1, read-out: Agar Dilution MIC
[4] = strain X400, read-out: Agar Dilution MIC
[5] = geometric mean over strains, read-out: MIC Geometric mean
[6] = mean over strains, read-out: MIC mean
[7] = geometric mean over strains, read-out: MIC Geometric Mean

Work on `CC1=C(C(=O)O)N2C(=O)C(NC(=O)[C@H](N)c3csc4cccc(Cl)c34)C2SC1` (stereo partly drawn) [Ex. 36B, D-7-(4-chloro-3-benzothienyl)glycylamido-3-methyl-3-cephem-4-carboxylic acid] yielded an MIC (Staph. aureus; [1]) of 128 µg/mL (≈ 292 µM), an MIC (Staph. aureus; [2]) of 128 µg/mL (≈ 292 µM) and an MIC (Staph. aureus; [3]) of 16 µg/mL (≈ 36.5 µM). It also gave an MIC (Staph. aureus; [4]) of 128 µg/mL (≈ 292 µM), an MIC (Staph. epi) of 128 µg/mL (≈ 292 µM) and an MIC (Staph. epi; strain 222) of 8 µg/mL (≈ 18.3 µM). The MIC (Strep. A; strain C203) was 8 µg/mL (≈ 18.3 µM), the MIC (Strep. PN) was 8 µg/mL (≈ 18.3 µM) and the MIC (Strep. D) was 128 µg/mL (≈ 292 µM). For the same compound, the “Agar Dilution MIC” value (Strep. D; strain 2041) was 128 µg/mL, the MIC (H. influ.) was 128 µg/mL (≈ 292 µM) and the MIC (H. influ.; strain 76) was 16 µg/mL (≈ 36.5 µM). The MIC (E. coli; strain EC14) was 128 µg/mL (≈ 292 µM), the MIC (E. coli; strain N10) was 128 µg/mL (≈ 292 µM) and the MIC (E. coli; strain TEM) was 128 µg/mL (≈ 292 µM). The MIC (Klebsiella) was 128 µg/mL (≈ 292 µM), the “Agar Dilution MIC” value (Klebsiella; strain KAE) was 128 µg/mL and the “Agar Dilution MIC” value (Klebsiella; strain X68) was 128 µg/mL.
With `CC1=C(C(=O)O)N2C(=O)C(NC(=O)[C@@H](N)c3csc4cc(Cl)ccc34)C2SC1` (stereo partly drawn) [Ex. 37A, L-7-(6-Chloro-3-benzothienyl)glycylamido-3-methyl-3-cephem-4-carboxylic acid] the MIC (Staph. aureus; [1]) was 64 µg/mL (≈ 146 µM), the MIC (Staph. aureus; [2]) was 64 µg/mL (≈ 146 µM) and the MIC (Staph. aureus; [3]) was 16 µg/mL (≈ 36.5 µM). For the same compound, the MIC (Staph. aureus; [4]) was 128 µg/mL (≈ 292 µM), the MIC (Staph. epi; strain 222) was 32 µg/mL (≈ 73.1 µM) and the MIC (Staph. epi; strain EPI1) was 64 µg/mL (≈ 146 µM). For the same compound, the MIC (Strep. A; strain C203) was 4 µg/mL (≈ 9.13 µM), the MIC (Strep. PN) was 16 µg/mL (≈ 36.5 µM) and the MIC (Strep. D; strain 2041) was 128 µg/mL (≈ 292 µM). For the same compound, the MIC (Strep. D; strain X66) was 128 µg/mL (≈ 292 µM), the MIC (H. influ.; strain 76) was 2 µg/mL (≈ 4.57 µM) and the MIC (H. influ.; strain C.L.) was 128 µg/mL (≈ 292 µM). For the same compound, the MIC (E. coli; strain EC14) was 128 µg/mL (≈ 292 µM), the MIC (E. coli; strain N10) was 128 µg/mL (≈ 292 µM) and the MIC (E. coli; strain TEM) was 128 µg/mL (≈ 292 µM). It also gave an MIC (Klebsiella; strain KAE) of 128 µg/mL (≈ 292 µM), an MIC (Klebsiella; strain X26) of 64 µg/mL (≈ 146 µM) and an MIC (Klebsiella; strain X68) of 128 µg/mL (≈ 292 µM).
For `CC1=C(C(=O)O)N2C(=O)[C@@H](NC(=O)[C@H](N)c3ccccc3)[C@H]2SC1` [Cephalexin], the MIC (Staph. aureus; read-out: Agar Dilution MIC) was 128 µg/mL (≈ 368 µM), the MIC (Staph. aureus; [3]) was 4 µg/mL (≈ 11.5 µM) and the MIC (Strep. A) was 0.5 µg/mL (≈ 1.44 µM). For the same compound, the MIC (Strep. D) was 128 µg/mL (≈ 368 µM), the “Agar Dilution MIC” value (Strep. D; strain 2041) was 128 µg/mL and the MIC (E. coli; strain EC14) was 4 µg/mL (≈ 11.5 µM). It also gave an MIC (Klebsiella) of 128 µg/mL (≈ 368 µM), an MIC (Bacteroides fragilis; [5]) of 34 µg/mL (≈ 97.9 µM) and an MIC (Bacteroides fragilis; [6]) of 40 µg/mL (≈ 115 µM). The MIC (Bacteroides fragilis; strain 180-821, read-out: MIC) was 16 µg/mL (≈ 46.1 µM), the MIC (Bacteroides fragilis; strain 10668, read-out: MIC) was > 64 µg/mL and the MIC (Bacteroides fragilis; strain 10683, read-out: MIC) was > 64 µg/mL. The MIC (Bacteroides fragilis; strain 10695, read-out: MIC) was 64 µg/mL (≈ 184 µM), the MIC (Bacteroides fragilis; strain 10732, read-out: MIC) was 32 µg/mL (≈ 92.1 µM) and the MIC (Bacteroides fragilis; strain 10750, read-out: MIC) was 64 µg/mL (≈ 184 µM). For the same compound, the MIC (Bacteroides fragilis; strain 10774, read-out: MIC) was > 64 µg/mL, the MIC (Bacteroides fragilis; strain 10817, read-out: MIC) was 16 µg/mL (≈ 46.1 µM) and the MIC (Bacteroides fragilis; strain 10837, read-out: MIC) was 16 µg/mL (≈ 46.1 µM). It also gave an MIC (Bacteroides fragilis; strain 107266, read-out: MIC) of 32 µg/mL (≈ 92.1 µM), an MIC (Bacteroides fragilis; strain 107268, read-out: MIC) of 16 µg/mL (≈ 46.1 µM) and an MIC (Bacteroides fragilis; strain 108133, read-out: MIC) of 32 µg/mL (≈ 92.1 µM). The MIC (Haemophilus influenzae; [7]) was 12 µg/mL (≈ 34.5 µM), the MIC (Haemophilus influenzae; [6]) was 22 µg/mL (≈ 63.3 µM) and the MIC (Haemophilus influenzae; strain 105) was 4 µg/mL (≈ 11.5 µM). The MIC (Haemophilus influenzae; strain 112, read-out: MIC) was 16 µg/mL (≈ 46.1 µM).
In the case of `CC1=C(C(=O)O)N2C(=O)C(NC(=O)C(N)c3cc4ccccc4s3)C2SC1` (stereo not drawn) [Compound B, 7-(2-benzothienyl)glycylamido-3-methyl-3-cephem-4-carboxylic acid], the MIC (Bacteroides fragilis; [5]) is reported as 15 µg/mL (≈ 37.2 µM), the MIC (Bacteroides fragilis; [6]) is reported as 27 µg/mL (≈ 66.9 µM) and the MIC (Bacteroides fragilis; strain 180-821, read-out: MIC) is reported as 2 µg/mL (≈ 4.96 µM). For the same compound, the MIC (Bacteroides fragilis; strain 10668, read-out: MIC) was 64 µg/mL (≈ 159 µM), the MIC (Bacteroides fragilis; strain 10695, read-out: MIC) was 16 µg/mL (≈ 39.7 µM) and the MIC (Bacteroides fragilis; strain 10732, read-out: MIC) was 4 µg/mL (≈ 9.91 µM). It also gave an MIC (Bacteroides fragilis; strain 10750, read-out: MIC) of 64 µg/mL (≈ 159 µM), an MIC (Bacteroides fragilis; strain 10774, read-out: MIC) of 64 µg/mL (≈ 159 µM) and an MIC (Bacteroides fragilis; strain 10817, read-out: MIC) of 4 µg/mL (≈ 9.91 µM). For the same compound, the MIC (Bacteroides fragilis; strain 10837, read-out: MIC) was 16 µg/mL (≈ 39.7 µM), the MIC (Bacteroides fragilis; strain 107266, read-out: MIC) was 4 µg/mL (≈ 9.91 µM) and the MIC (Bacteroides fragilis; strain 107268, read-out: MIC) was 16 µg/mL (≈ 39.7 µM). The MIC (Bacteroides fragilis; strain 108133, read-out: MIC) was 16 µg/mL (≈ 39.7 µM), the MIC (Haemophilus influenzae; [7]) was 2 µg/mL (≈ 4.96 µM) and the MIC (Haemophilus influenzae; [6]) was 3 µg/mL (≈ 7.44 µM). For the same compound, the MIC (Haemophilus influenzae; strain 102) was 16 µg/mL (≈ 39.7 µM), the MIC (Haemophilus influenzae; strain 104, read-out: MIC) was 2 µg/mL (≈ 4.96 µM) and the MIC (Haemophilus influenzae; strain 107) was 4 µg/mL (≈ 9.91 µM). For the same compound, the MIC (Haemophilus influenzae; strain 109, read-out: MIC) was 1 µg/mL (≈ 2.48 µM), the MIC (Haemophilus influenzae; strain 110) was 4 µg/mL (≈ 9.91 µM) and the MIC (Haemophilus influenzae; strain 112, read-out: MIC) was 8 µg/mL (≈ 19.8 µM). The MIC (Haemophilus influenzae; strain 113, read-out: MIC) was 2 µg/mL (≈ 4.96 µM) and the MIC (Haemophilus influenzae; strain 114, read-out: MIC) was 2 µg/mL (≈ 4.96 µM).
For `CC1=C(C(=O)O)N2C(=O)C(NC(=O)[C@@H](N)c3csc4c(F)cccc34)C2SC1` (stereo partly drawn) [Ex. 21, L-7-(7-Fluoro-3-benzothienyl)glycylamido-3-methyl-3-cephem-4-carboxylic acid], the MIC (Staph. aureus; [1]) was 128 µg/mL (≈ 304 µM), the MIC (Staph. aureus; [2]) was 128 µg/mL (≈ 304 µM) and the MIC (Staph. aureus; [3]) was 32 µg/mL (≈ 75.9 µM). The MIC (Staph. aureus; [4]) was 128 µg/mL (≈ 304 µM), the MIC (Staph. epi) was 128 µg/mL (≈ 304 µM) and the MIC (Staph. epi; strain 222) was 64 µg/mL (≈ 152 µM). The MIC (Strep. A; strain C203) was 8 µg/mL (≈ 19 µM), the MIC (Strep. PN) was 16 µg/mL (≈ 38 µM) and the MIC (Strep. D) was 128 µg/mL (≈ 304 µM). For the same compound, the “Agar Dilution MIC” value (Strep. D; strain 2041) was 128 µg/mL, the MIC (H. influ.; strain 76) was 8 µg/mL (≈ 19 µM) and the MIC (H. influ.; strain C.L.) was 64 µg/mL (≈ 152 µM). It also gave an MIC (E. coli; strain EC14) of 128 µg/mL (≈ 304 µM), an MIC (E. coli; strain N10) of 128 µg/mL (≈ 304 µM) and an MIC (E. coli; strain TEM) of 128 µg/mL (≈ 304 µM). The MIC (Klebsiella) was 128 µg/mL (≈ 304 µM), the MIC (Klebsiella; strain X26) was 64 µg/mL (≈ 152 µM) and the “Agar Dilution MIC” value (Klebsiella; strain X68) was 128 µg/mL.
